The target of test [1] is Aldo-keto reductase family 1 member B1 (Rattus norvegicus, UniProt P07943). Nature of the test: Inhibition of Wistar rat lens ALR2 using D,L-glyceraldehyde as substrate after 10 mins by UV/VIS double spectrophotometric analysis. Format: tissue-based, Lens of camera-type eye.
The target in test [2] is Aldo-keto reductase family 1 member A1 (Rattus norvegicus, UniProt P51635). Nature of the test: Inhibition of Wistar rat kidney ALR1 using D-glucuronate as substrate after 10 mins by UV/VIS double spectrophotometric analysis.
Aldo-keto reductase family 1 member A1, sequence (P51635 whole entry, looked up): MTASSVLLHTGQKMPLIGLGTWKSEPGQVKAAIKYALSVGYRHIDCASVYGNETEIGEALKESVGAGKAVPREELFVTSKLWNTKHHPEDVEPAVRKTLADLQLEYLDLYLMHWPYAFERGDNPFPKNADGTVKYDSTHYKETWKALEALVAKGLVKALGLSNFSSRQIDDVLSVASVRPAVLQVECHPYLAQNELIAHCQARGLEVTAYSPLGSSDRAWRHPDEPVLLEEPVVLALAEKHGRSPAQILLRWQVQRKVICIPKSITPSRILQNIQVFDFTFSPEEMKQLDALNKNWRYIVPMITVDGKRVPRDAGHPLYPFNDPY
Test [3] has as its target Aldo-keto reductase family 1 member B1 (Rattus norvegicus) (UniProt P07943). Nature of the test: Inhibition of Wistar rat lens ALR2 using D,L-glyceraldehyde as substrate at 10 uM after 10 mins by UV/VIS double spectrophotometric analysis. Particulars: Lens of camera-type eye. Type of test: tissue-based.

Each structure is given as a SMILES string.

With `O=C(O)/C=C1\CN(Cc2cc(F)c(F)cc2F)S(=O)(=O)c2ccccc21` (mixture of isomers), the values for the IC50 in test [1] and in test [2] were 590 nM and more than 10 µM, respectively.
On to `O=C(O)/C=C1\CN(Cc2ccc(C(F)(F)F)cc2)S(=O)(=O)c2ccccc21` (mixture of isomers), for which, in test [1], the IC50 (in general, the concentration that inhibits the measured activity by half) was 6130 nM.
Turning to `O=C(O)/C=C1\CN(Cc2ccc(Br)cc2F)S(=O)(=O)c2ccccc21` (mixture of isomers), the IC50 is 110 nM in test [1] and more than 10 µM in test [2].
On the same counts, the results for `O=C(O)/C=C1\CN(Cc2cccc([N+](=O)[O-])c2)S(=O)(=O)c2ccccc21` (mixture of isomers) are 140 nM and more than 10 µM.
`O=C(O)/C=C1\CN(Cc2ccccc2F)S(=O)(=O)c2ccccc21` (mixture of isomers) came in with an IC50 in test [1] of 2130 nM.
Take `O=C(O)/C=C1\CN(Cc2cc(C(F)(F)F)cc(C(F)(F)F)c2)S(=O)(=O)c2ccccc21` (mixture of isomers): the inhibition (commonly the percentage by which the read-out fell short of the control) in test [3] was 32%.
For `O=C(O)CC1CN(Cc2cc(F)c(F)cc2F)S(=O)(=O)c2ccccc21` (racemic), the IC50 was 340 nM in test [1] and more than 10 µM in test [2].
The compound `O=C(O)CC1CN(Cc2cc(C(F)(F)F)cc(C(F)(F)F)c2)S(=O)(=O)c2ccccc21` (racemic) yielded an IC50 in test [1] of 10400 nM.
Same read-out and setting: as for `O=C(O)CC1CN(Cc2ccc(C(F)(F)F)cc2)S(=O)(=O)c2ccccc21` (racemic), the figure is 5300 nM; as for `O=C(O)CC1CN(Cc2ccccc2F)S(=O)(=O)c2ccccc21` (racemic), 1730 nM.
